Entries after “also recorded” stand apart in the source; their conditions may differ. Like-named read-outs stand apart in the source and are kept apart here. Peptide text beside a SMILES is read from it.
What was measured:
PC12 cells = assay: PC12 cell survival after H2O2 oxidative insult (MTT reduction); format: cell-based; conditions: 200 μM H2O2 30 min, result in words
Procedure: PC12 cells (Greene and Tischler 1976, Shafer and Atchison 1991) were grown in RPMI supplemented with 10% heat-inactivated horse serum (HSI), 5% fetal bovine serum (FBS), penicillin and streptomycin on a collagen matrix. Typically, cells were sow (1:4 in a total volume of 10 ml complete medium) in 100×20 mm cell culture dishes and grown at 37° C. in at atmosphere of 5% CO2 for a week. Media was changed twice a week. Cultures were not used in more than 25 passages.
Cells were plated at a low density (100 cells/μl) in 200 μl of complete medium on 96-well cell culture plates on a poli-D-lysine matrix to do all the experiments except the comet assay. To do the latter, 100×20mm-cell culture dishes were adequate. All the experiments were started 24 hrs after the sow.
Cells were exposed to H2O2 200 μM during half an hour (medium was changed to stop the treatment) and all the evaluations were fulfilled 2 hrs later.
This assay measures the reduction of 3-(4,5-dimethyl-thiazol-2-yl)-2,5-diphenil tetrazolium bromide (MTT) (yellowish) to formazan (blue) by mitochondrial dehydrogenases of the living cells. The fresh complete medium added after the treatment was supplemented with MTT (0.5 mg/ml ). Following an incubation period of 2 hrs, it was removed and half-its volume of dimethylsulfoxide (DMSO) was added to achieve solubilization. Absorption values were read immediately at 570-640 nm (Denizot and Lang 1986). […]

[1] = test system: spontaneous lipoperoxidation of rat's brain membranes; assay: Spontaneous lipoperoxidation of rat brain membranes (malondialdehyde production); format: biochemical; conditions: for antioxidant potency / capacity: anti-lipoperoxidation assay (test not given)
[2] = test system: rats injected with 6-OHDA in the SN; assay: 6-OHDA lesion of the Substantia Nigra (experimental parkinsonism), striatal dopamine; format: in vivo, rat; conditions: given intraperitoneally before 6-OHDA, assessed eight days after, result in words
[3] = Quercetin concentration in rat blood after intraperitoneal administration; format: in vivo
Description: FIG. 17. A graph of Quercetin concentration in rat blood at different periods after intraperitoneal administration.

[4] = Acute toxicity (species not given); conditions: intraperitoneal or oral, doses up to 300 mg/kg
male Sprague-Dawley rats = assay: Permanent focal MCA occlusion, TTC morphometry and histology; format: in vivo, rat; conditions: result in words
[5] = inhibition of spontaneous lipoperoxidation, rat brain membranes, read-out: IC50

Row | Compound | protection / cell survival after H2O2 insult (PC12 cells) | IC50 [1, 5] [µM] | neuroprotection: dopamine level in ipsilateral striatum [2] | also measured
1 | Cn1cnc(N)c2ncnc1-2 [3-MT, 3-methyladenine] | block H2O2-induced cell death |  |  | 
2 | COc1cc2c(cc1O)C[C@H]1c3c(cc(O)c(OC)c3-2)CCN1C [Boldine] | only marcela extracts, quercetin or structurally similar flavonoids protected PC12 cells; also recorded: did not increased survival | 12.8 | did not revert in vivo the oxidative lesion; also recorded: did not show neuroprotection activity | antioxidant potency / capacity ([1]; result in words): highest antioxidant potency
3 | O=C(O)/C=C/c1ccc(O)c(O)c1 [Caffeic acid] |  | 48.6 |  | 
4 | Oc1cc(O)c2c(c1)OC(c1ccc(O)c(O)c1)C(O)C2 (stereo not drawn) [Catequin] |  | 28.3 |  | 
5 | CC(=O)N[C@@H](CC(C)C)C(=O)N[C@@H](CCC(=O)O)C(=O)N[C@@H](Cc1c[nH]cn1)C(=O)N[C@H](C=O)CC(=O)O [LEHD, acetyl-L-leucyl-L-glutamyl-L-histidyl-L-aspart-1-al] (Ac-LEHD-aldehyde) | block H2O2-induced cell death |  |  | 
6 | COc1ccc2[nH]cc(CCNC(C)=O)c2c1 [Melatonine] | did not increased survival | 1400 | weaker in its neuroprotection | 
7 | CN1CCCC1c1cccnc1 (stereo not drawn) [Nicotine] |  |  | reverted dopamine levels in the ipsilateral striatum | antioxidant potency / capacity ([1]; result in words): negligible
8 | O=c1c(O)c(-c2ccc(O)c(O)c2)oc2cc(O)cc(O)c12 [Quercetin] | protected PC12 cells; also recorded: protects PC12 cells against H2O2; also recorded: Neuroprotectan effect | 3.7 | did not show neuroprotection activity | time quercetin is detected in blood [3]: up to two; malondialdehyde production during spontaneous lipoperoxidation ([1]; result in words): decreased malondialdehyde production; antioxidant potency / capacity ([1]; result in words): potent antioxidants; IC50 ([1]; spontaneous lipoperoxidation, marcela expressed in quercetin equivalents): 1.11 µg/mL; adverse effects in acute toxicity experiments [4]: did not show any adverse effects; ischemic lesion area (male Sprague-Dawley rats; liposomal quercetin 30 mg/kg i.p. 30 min after ischemia, TTC at 24 hrs): clearly decreased the lesion area; also recorded: marked and significant decrease of the ischemic area; also recorded: recovery of the ischemic areas is clear cut; number of neurons in Nissl stained slices (male Sprague-Dawley rats; striatum and cortex, 24 hrs after occlusion): higher than ischemic rats and non different from controls; neuroprotection: dopamine level in ipsilateral striatum ([2]; listed as quercetin): did not revert in vivo the oxidative lesion; also recorded: appear not to have neuroprotectant effects in vivo
9 | CC[C@H](C)[C@H](NC(=O)[C@H](CCC(=O)O)NC(=O)[C@@H](NC(C)=O)C(C)C)C(=O)N[C@H](C=O)CC(=O)O [VEID, acetyl-L-valyl-L-glutamyl-L-isoleucyl-L-aspart-1-al] (Ac-VEID-aldehyde) | block H2O2-induced cell death |  |  | 
10 | O=c1c(O)c(-c2ccc(O)c(O)c2)oc2cc(O)ccc12 [fisetin] | did show neuroprotectant capacity |  |  | 
11 | O=c1c(O)c(-c2cc(O)c(O)c(O)c2)oc2cc(O)cc(O)c12 [myricetin] | did show neuroprotectant capacity |  |  | 
12 | Cc1c(C)c2c(c(C)c1O)CCC(C)(C(=O)O)O2 (stereo not drawn) [trolox] | only marcela extracts, quercetin or structurally similar flavonoids protected PC12 cells |  |  | 
13 | Cc1c(C)c2c(c(C)c1O)CC[C@@](C)(CCC[C@H](C)CCC[C@H](C)CCCC(C)C)O2 [vitamin E, alpha-tocopherol] | only marcela extracts, quercetin or structurally similar flavonoids protected PC12 cells |  |  | protection / cell survival after H2O2 insult (PC12 cells; listed as alpha-tocopherol): did not increased survival
